One block for each compound: values may come before it.
How the values were obtained:
[1] = In vitro phase I metabolism with mouse hepatic microsomes and NADPH; format: in vitro ADME; details: PZ-DHA 1.1 µM, 100 mM NADPH, 1 h, 37 °C
Protocol: Figure 2 PZ-DHA undergoes phase I metabolism in the presence of freshly prepared mouse liver microsomes. PZ-DHA (1.1 µM) was incubated with 100 mM NADPH in the presence of mouse liver microsome for 1 h at 37 °C. Metabolites from PZ-DHA (A) hydrolysis, (B) and (C) hydroxylation, and (D) epoxidation were identified.
Mouse hepatic microsomes were freshly isolated from the livers of male C57BL/6 mice, and the entire extraction procedure was carried out at 4 °C. Mouse livers were minced and homogenized in KCl/sucrose phosphate buffer (0.154 M KCl, 0.25 M sucrose in 50 mM potassium phosphate buffer (K2HPO4/KH2PO4) (PPB), pH 7.5). Cell/tissue debris was separated out by centrifuging homogenized livers at 12,000×g for 22 min at 4 °C. The supernatant was collected and centrifuged at 100,000×g for 70 min at 4 °C. The pellet was gently rinsed using 50 mM PPB and resuspended in glycerol/phosphate buffer (20% glycerol (v/v), 80% 0.1 M PPB pH 7.5). The protein concentration was determined using a Bradford assay (R^2 = 1.00), and microsomes were stored at − 80 °C.
Potential in vitro phase I and phase II metabolites of PZ-DHA were detected by incubating PZ-DHA in the presence of freshly-prepared mouse hepatic microsome preparations. Phase I metabolites were determined by incubating 1.1 µM PZ-DHA with 100 mM NADPH in the presence of mouse hepatic microsomes for 1 h at 37 °C. Phase II methylation, glucuronidation, and sulphation of PZ-DHA was determined by incubating 1.1 µM PZ-DHA with 1 mM SAM, 2 mM UDPGA, and 0.5 mM PAPS, respectively, in the presence of freshly prepared mouse hepatic microsome for 1 h at 37 °C (Supplementary information Tables S1–S4). To assess the efficiency of the metabolic process, controls (no PZ-DHA control, no mouse hepatic microsome control and no co-factor control) were incubated in parallel to the test. Reactions were terminated by adding a mixture of 4 mL ice-cold acetonitrile:acetone (80:20) containing 0.05 mg/mL quercetin as the internal standard. Proteins were precipitated by incubating the reaction mixture at 4 °C overnight and separated by centrifuging at 14,000 × g for 15 min at 4 °C. Supernatants were concentrated under nitrogen flush, filtered and PZ-DHA and/or PZ-DHA metabolites were identified using a UPLC-ESI–MS/MS system (Waters Limited, Mississauga, ON, Canada).
(§1) PZ-DHA and/or PZ-DHA metabolites in malignant/non-malignant epithelial cell lysates, in vitro microsome enzyme reaction mixtures, and mouse serum aliquots were determined using UPLC-ESI–MS/MS instrument (Waters Limited, Mississauga, ON, Canada). All mass spectroscopic analyses were performed using mass scan (full-scan, identification of unknowns) and single ion monitoring (SIM; quantification of PZ, DHA, PZ-DHA, and quercetin) modes of a Waters H-class UPLC separations module coupled with a Micromass Quattro micro API MS/MS system and MassLynx V4.0 control software. An Allure biphenyl column (100 mm × 2.1 mm, 1.8 μm, Restek Pure Chromatography, Bellefonte, PA, USA) and a flow rate of 0.3 mL/min were employed. ESI- mode with a capillary voltage of 3000 V and a nebulizer gas (N2) temperature of 375 °C were used. A volume of 2 µL sample was injected.

[2] = Serum pharmacokinetics after intraperitoneal injection; format: in vivo, Balb/c female mice; details: PZ-DHA 100 mg/kg intraperitoneal, serum
Protocol: Figure 4 Intraperitoneal administration of PZ-DHA results in absorption into the systemic circulation of Balb/c female mice. PZ-DHA (100 mg/kg) was administered by intraperitoneal injection to Balb/c female mice. Blood collection was performed and serum was separated. PZ-DHA was identified and quantified using a calibration curve (R^2 = 0.99) generated using a standard series of PZ-DHA concentrations made in mouse serum. PZ-DHA concentration was plotted against time. The elimination rate of PZ-DHA was determined using a semi-log curve of PZ-DHA concentration vs. time curve.
(§2) Pharmacokinetic parameters and in vivo generation of PZ-DHA metabolites were studied using Balb/c female mice. Mice were randomly divided into six groups (n = 4/group) and PZ-DHA (100 mg/kg) was administered by intraperitoneal injection. For each mouse, a single blood collection was performed by cardiac puncture at one of six different time points (t = 15, 30, 60, 90, 120, and 240 min). At the end of blood collection, mice were euthanized by cervical dislocation and organs (liver, lungs, kidneys, spleen, and brain) were harvested. Blood samples were allowed to clot by leaving undisturbed at room temperature for 1 h, and serum was separated by centrifuging at 2000×g for 10 min at 4 °C. The serum was carefully removed and stored on ice until further processing. Serum proteins were precipitated by incubating an aliquot of serum with a mixture of acetonitrile:acetone (80:20) containing 0.1 mg/mL quercetin (internal standard) at 4 °C overnight. The supernatant was separated by centrifuging at 14,000×g for 10 min at 4 °C. Excess solvent was evaporated using nitrogen flush and mixed with methanol and filtered. PZ-DHA-metabolites in the filtrate were identified using a UPLC-ESI–MS/MS (Waters Limited, Mississauga, ON, Canada). Organs were homogenized in PBS (1:5 w/v). Supernatants were collected by centrifugation at 14,000 × g for 15 min at 4 °C. Proteins were precipitated by incubating in acetonitrile:acetone (80:20) containing 0.1 mg/mL quercetin (internal standard) at 4 °C overnight. Supernatants were treated as explained above, and PZ-DHA and/or PZ-DHA-metabolites were identified.
A calibration curve (R^2 = 0.99) generated using a standard series of PZ-DHA concentrations prepared in mouse serum (spiked with 0.1 mg/mL quercetin) was used for the quantification of PZ-DHA. The average PZ-DHA concentrations were plotted against time. The maximum serum concentration of serum (Cmax) and the time to reach Cmax (Tmax) were read directly from the graph. The linear trapezoidal method was used to calculate the area under the curve (AUC) from t = 0 to infinity, the biological half-life of PZ-DHA (t1/2), determined using the plotted curve in Graphpad Prism software (version 5; La Jolla, CA, USA). The clearance following IP administration was determined by non-compartmental analysis using the relationship CL/F = D/AUC. The elimination rate constant λ was determined by linear regression of the elimination phase of the semi-log transformed concentration versus time curve. The t1/2 was calculated using the formula 0.693/λ and the volume of distribution Vd/F from the formula Vd/F = CL/(F*λ).

[3] = system: mammary carcinoma cells, including MDA-MB-231 and 4T1; set-up: method as in PMID 31473253; details: 20 µM for PZ-DHA; cited from earlier work
[4] = system: mammary carcinoma cells and mammary epithelial cells; assay: Cellular uptake assay, all cell lines together; format: cell-based, human and mouse; details: all cell lines, 20 μM, 72 h
Protocol: Figure 1 Conjugation of PZ with DHA increases the cellular uptake and stability of PZ and DHA. The cells were treated with 20 μM of PZ, DHA or PZ-DHA and cultured for 72 h at 37 °C. Cells were harvested and washed thoroughly using cold PBS. Cells were lysed in cold acetone containing 0.05 mg/mL quercetin, and cell lysates were collected by centrifugation and analyzed by using UPLC-ESI-MS/MS. (A) mean % cellular uptake of PZ, DHA and PZ-DHA. (B) fold increase in intracellular PZ and DHA when conjugated. ANOVA multiple means statistical comparison method was performed and differences among means were compared using Tukey’s test; *p < 0.05. (MDA-MB-231 p = 0.008; MDA-MB-468 p = 0.01; 4T1 p = 0.02; MCF-7 p = 0.01; MCF-10A p = 0.0005).
Cells were seeded at a density of 3 × 10^5 cells (MDA-MB-231, MDA-MB-468, MCF-7, and MCF-10A) or 1 × 10^5 cells (4T1) /T-75 flask. The cells were cultured overnight to promote cell adhesion. Adherent cells were treated with a sub-cytotoxic concentration (20 μM) of PZ, DHA or PZ-DHA and cultured for 72 h at 37 °C. The supernatant was carefully removed, and cell monolayers were washed with cold PBS. Cells were harvested using TrypLE Express and washed thoroughly with cold PBS. The cell pellet was resuspended in 3 mL of cold acetone containing 0.05 mg/mL quercetin as the internal standard, and incubated overnight at 4 °C. Cell lysates were collected by centrifugation at 14,000×g for 15 min at 4 °C and samples were concentrated by evaporating acetone under a stream of nitrogen gas. Dry pellets were reconstituted in methanol and filtered. The sample was analyzed using a UPLC/ESI/MS system. The percentage cell uptake of the total dose was quantified using standard curves of PZ (R^2 = 0.99), DHA (R^2 = 0.98) or PZ-DHA (R^2 = 0.99) made in methanol.
as §1

[5] = In vitro phase II metabolism with mouse hepatic microsomes and SAM, UDPGA or PAPS; format: in vitro ADME; details: PZ-DHA 1.1 µM, SAM, 1 h, 37 °C
Protocol: Figure 3 PZ-DHA undergoes phase II metabolism in the presence of freshly prepared mouse liver microsomes. PZ-DHA (1.1 µM) was incubated with S-(5′-adenosyl)-L-methionine chloride dihydrochloride (1 mM), […] (2 mM) and alamethicin (25 µg/mL) and adenosine 3′-phosphate 5′-phosphosulfate lithium salt, hydrate (0.5 mM) in the presence of mouse liver microsomal enzymes (3 mg/mL) at 37 °C for 1 h. (A) Tri-methylated-PZ-DHA (4,4′,6′-tri-O-methyl-phloridzin docosahexaenoate) (MW = 788.88 g/mol), (B) phloridzin docosahexaenoate-4-O-glucuronide (MW = 923.02 g/mol) and phloridzin docosahexaenoate-4′-O-glucuronide (MW = 923.02 g/mol), and (C) sulfated-PZ-DHA (phloridzin docosahexaenoate-4,4′-di-O-sulphide) metabolite (MW = 906.20 g/mol) were identified.
Mouse hepatic microsomes were freshly isolated from the livers of male C57BL/6 mice, and the entire extraction procedure was carried out at 4 °C. Mouse livers were minced and homogenized in KCl/sucrose phosphate buffer (0.154 M KCl, 0.25 M sucrose in 50 mM potassium phosphate buffer (K2HPO4/KH2PO4) (PPB), pH 7.5). […] The protein concentration was determined using a Bradford assay (R^2 = 1.00), and microsomes were stored at − 80 °C.
Potential in vitro phase I and phase II metabolites of PZ-DHA were detected by incubating PZ-DHA in the presence of freshly-prepared mouse hepatic microsome preparations. Phase I metabolites were determined by incubating 1.1 µM PZ-DHA with 100 mM NADPH in the presence of mouse hepatic microsomes for 1 h at 37 °C. Phase II methylation, glucuronidation, and sulphation of PZ-DHA was determined by incubating 1.1 µM PZ-DHA with 1 mM SAM, 2 mM UDPGA, and 0.5 mM PAPS, respectively, in the presence of freshly prepared mouse hepatic microsome for 1 h at 37 °C (Supplementary information Tables S1–S4). […]
PZ-DHA and/or PZ-DHA metabolites in malignant/non-malignant epithelial cell lysates, in vitro microsome enzyme reaction mixtures, and mouse serum aliquots were determined using UPLC-ESI–MS/MS instrument (Waters Limited, Mississauga, ON, Canada). […]

[6] = Tissue distribution of PZ-DHA and metabolites after intraperitoneal injection; format: in vivo, Balb/c female mice; details: PZ-DHA 100 mg/kg intraperitoneal
Protocol: Figure 5 PZ-DHA and metabolites were detected in various organs of PZ-DHA-treated Balb/c female mice. PZ-DHA (100 mg/kg) was administered by intraperitoneal injection to Balb/c female mice and liver, lungs, kidneys, spleen and brain were harvested. Organs were homogenized and PZ-DHA in (A) liver, kidneys, lungs, spleen, and brain was identified and quantified using a calibration curve. The abundance of (B) 4,4′,6′-tri-O-methyl-phloridzin docosahexaenoate in liver, kidneys, lungs, and serum) and (C) phloridzin docosahexaenoate-4,4′-di-O-sulphide in the liver was determined in PZ-DHA equivalence.
as §2

[7] = system: human plasma proteins; details: ref Boulton et al.; cited from earlier work

phase I metabolite of PZ-DHA identified [1]: identified
Compound: O=C(CCc1ccc(O)c(O)c1)c1c(O)cc(O)cc1O[C@@H]1O[C@H](CO)[C@@H](O)[C@H](O)[C@H]1O [3-hydroxy-phloridzin]

phase I metabolite in serum after PZ-DHA [2]: detection
phase I metabolite of PZ-DHA identified [1]: identified
cellular uptake (as a % of the dose), in words [4]: very low
Compound: O=C(CCc1ccc(O)cc1)c1c(O)cc(O)cc1O[C@@H]1O[C@H](CO)[C@@H](O)[C@H](O)[C@H]1O [PZ, phloridzin]
migration and invasion of mammary carcinoma cells [3]: to a lesser extent than PZ-DHA

phase II metabolite of PZ-DHA identified [5]: identified
time at which the metabolite reached the maximum concentration, post-injection ([6]; all organs except for serum): < 1 h
metabolite detection in tissue after PZ-DHA ([6]; liver, lungs, and kidneys): detected
metabolite concentration in serum throughout the experimental period ([6]; serum): remained constant
metabolite detection in tissue after PZ-DHA ([6]; spleen or brain): not found
Compound: CC/C=C\C/C=C\C/C=C\C/C=C\C/C=C\C/C=C\CCC(=O)OC[C@H]1O[C@@H](Oc2cc(OC)cc(OC)c2C(=O)CCc2ccc(OC)cc2)[C@H](O)[C@@H](O)[C@@H]1O [4,4′,6′-tri-O-methyl-phloridzin docosahexaenoate]

phase I metabolite of PZ-DHA identified [1]: identified
Compound: tri-epoxy-phloridzin docosahexaenoate

phase II metabolite of PZ-DHA identified [5]: identified
Compound: CC/C=C\C/C=C\C/C=C\C/C=C\C/C=C\C/C=C\CCC(=O)OC[C@H]1O[C@@H](Oc2cc(O)cc(O)c2C(=O)CCc2ccc(O[C@@H]3O[C@H](C(=O)O)[C@@H](O)[C@H](O)[C@H]3O)cc2)[C@H](O)[C@@H](O)[C@@H]1O [phloridzin docosahexaenoate-4-O-glucuronide]

phase I metabolite in serum after PZ-DHA [2]: detection
phase I metabolite of PZ-DHA identified [1]: identified
cellular uptake (as a % of the dose), in words [4]: very low
Compound: CC/C=C\C/C=C\C/C=C\C/C=C\C/C=C\C/C=C\CCC(=O)O [DHA, docosahexaenoic acid, reference compound]
migration and invasion of mammary carcinoma cells [3]: to a lesser extent than PZ-DHA

phase II metabolite of PZ-DHA identified [5]: identified
Compound: CC/C=C\C/C=C\C/C=C\C/C=C\C/C=C\C/C=C\CCC(=O)OC[C@H]1O[C@@H](Oc2cc(O[C@@H]3O[C@H](C(=O)O)[C@@H](O)[C@H](O)[C@H]3O)cc(O)c2C(=O)CCc2ccc(O)cc2)[C@H](O)[C@@H](O)[C@@H]1O [phloridzin docosahexaenoate-4′-O-glucuronide]

Compound: O=c1c(O)c(-c2ccc(O)c(O)c2)oc2cc(O)cc(O)c12 [quercetin]
bound to human plasma proteins [7]: 99.1%
freely available in the plasma [7]: 0.9%

phase I metabolite of PZ-DHA identified [1]: identified
Compound: CC/C=C\C/C=C\C/C=C\C/C=C\C/C=C\C/C=C\CCC(=O)OC[C@H]1O[C@@H](Oc2cc(O)cc(O)c2C(=O)CCc2ccc(O)c(O)c2)[C@H](O)[C@@H](O)[C@@H]1O [3-hydroxy-phloridzin docosahexaenoate]

Reference: paper PMC7721897, “Metabolism and pharmacokinetics of a novel polyphenol fatty acid ester phloridzin docosahexaenoate in Balb/c female mice” (Scientific Reports, 2020)
